Data from patent publication US8999891B2, “Method for controlling weeds in turf” (Dow AgroSciences LLC, priority 2013, dated 2015).

How the values were obtained:
Ground Ivy (GLEHE) = assay: Field study in turf, average % weed control; type: in vivo, Glechoma hederacea
Source text: (§1) Replicated applications were made to small plots (i.e. 5′×5′, 3′×10′) using a CO2 backpack sprayer. Florasulam SC (EF-1343), fluoroxypyr (Starane® Ultra) and 2,4-D (DMA® 4) are produced by Dow AgroSciences LLC, Indianapolis, Ind. Applications at each site were made at typical postemergent herbicide timing for that particular study location. Applications were generally timed for peak dandelion bloom in the northern cool-season turf market and throughout the year in the warm-season turf market where winter and summer annual and perennial weeds are targeted. Weed control evaluations were made as percent weed cover per plot and converted to percent control based on weed levels in the untreated control. Evaluations were made at various timing after application for eight to ten weeks.
(§2) [formula] A=observed efficacy of a first active ingredient at the same concentration as used in the mixture. B=observed efficacy of a second active ingredient B at the same concentration as used in the mixture. C=observed efficacy of a third active ingredient C at the same concentration as used in the mixture. The following abbreviations are used in the tables: g ai/ha=grams active ingredient per hectare g ae/ha=grams acid equivalent per hectare DAA=days after application.

Dandelion (TAROF) = assay: Field study in turf, average % weed control; type: in vivo, Taraxacum officinale; conditions: 55 DAA, florasulam 5.2 g ai/ha, fluroxypyr 52.9 g ae/ha, 2,4-D 520 g ae/ha, alone or in the mixture
Source text: as §1, §2

White Clover (TRFRE) = assay: Greenhouse post-emergence weed control, visual percent control; type: in vivo, Trifolium repens; conditions: 1 week after treatment, florasulam 0.001 g ai/ha, fluroxypyr 0.01 g ae/ha, 2,4-D 0.11 g ae/ha, alone or in the mixture, 0 = no control, 100 = complete kill
Source text: Studies were applied post-emergence to broadleaf weeds reared from seed in 5″ square pots in 80% mineral/20% grit field soil. Stage of growth of species at application: EPHSU in the 3 to 5 leaf stage and TRFRE in the 3rd tri-foliate stage. Post-emergence trial design was a replicated block, one species per pot, 4 replicate pots per treatment. Post-emergence applications were made to the pot with a tracksprayer calibrated to 187 liters per hectare (L/ha), 40 pounds per square inch (PSI) at 1.9 miles per hour (mph) using an 8003E Teejet nozzle covering both soil and foliage. Trial was sub-irrigated daily. Active weed growth was maintained throughout the study period. Weed control of each species in the post-emergence study was assessed at 1, 2 and 3 weeks after treatment. Control was determined visually by comparing treated and untreated pots and scored on a 0 to 100 percent scale where 0 corresponds to no control and 100 corresponds to complete kill.
In the foregoing examples, the following equation was used to calculate the expected activity of mixtures containing three herbicidal active ingredients:
as §2

White Cover (TRFRE) = assay: Field study in turf, average % weed control; type: in vivo, Trifolium repens; conditions: 62 DAA, florasulam 5.2 g ai/ha, fluroxypyr 52.9 g ae/ha, 2,4-D 520 g ae/ha, alone or in the mixture
Source text: as §1, §2

[1] = 28 DAA, florasulam 2.3 g ai/ha, fluroxypyr 26.5 g ae/ha, 2,4-D 260.6 g ae/ha alone (260.0 in the mixture)
[2] = 56 DAA, florasulam 5.2 g ai/ha, fluroxypyr 52.9 g ae/ha, 2,4-D 520 g ae/ha, alone or in the mixture

Compound | Observed Average % Weed Control (Ground Ivy (GLEHE); [1]) [%] | Observed Average % Weed Control (Ground Ivy (GLEHE); [2]) [%] | Observed Average % Weed Control (Dandelion (TAROF)) [%] | Observed percent control (White Clover (TRFRE)) [%] | Observed Average % Weed Control (White Cover (TRFRE)) [%]
O=C(O)COc1ccc(Cl)cc1Cl [2,4-D, (2,4-dichlorophenoxy)acetic acid] | 41.0 | 41.7 | 45.6 | 1.7 | 20.0
COc1ncc(F)c2nc(S(=O)(=O)Nc3c(F)cccc3F)nn12 [Florasulam, 2′,6′,8-trifluoro-5-methoxy[1,2,4]triazolo[1,5-c]pyrimidine-2-sulfonanilide] | 0.0 | 0.0 | 25.0 | 10.3 | 23.8
Nc1c(Cl)c(F)nc(OCC(=O)O)c1Cl [Fluroxypyr, [(4-amino-3,5-dichloro-6-fluoro-2-pyridinyl)oxy]acetic acid] | 0.0 | 0.0 | 14.3 | 35 | 31.3
